{
  "source": "ChEMBL document CHEMBL4602617",
  "about": "“Discovery and optimization of heteroaryl piperazines as potent and selective PI3Kδ inhibitors” (Bioorg Med Chem Lett, 2020)",
  "key": {"[1]": {"target": "Phosphatidylinositol 4-phosphate 3-kinase C2 domain-containing subunit beta (Homo sapiens, UniProt O00750)", "assay": "Inhibition of recombinant GST-tagged human PIK3C2B catalytic domain expressed in baculovirus expression system using PI as substrate after 1 hr in presence of ATP by Adapta assay"}, "[2]": {"assay": "Clearance in rat plasma at 0.5 mg/kg, iv or 1 mg/kg, po", "format": "ADME, organism-based"}, "[3]": {"target": "Leukocyte tyrosine kinase receptor (Homo sapiens, UniProt P29376)", "assay": "Inhibition of recombinant human GST-tagged LTK (450 to 864 residues) cytoplasmic domain expressed in baculovirus expression system using tyrosine-6 peptide as substrate incubated for 60 mins in presence of ATP by Z'-LYTE assay"}, "[4]": {"target": "Tyrosine-protein kinase Mer (Homo sapiens, UniProt Q12866)", "assay": "Inhibition of recombinant human GST-tagged MER (578 to 872 residues) expressed in baculovirus expression system using tyrosine-2 peptide as substrate incubated for 60 mins in presence of ATP by Z'-LYTE assay"}, "[5]": {"target": "Melanocortin receptor 5 (Homo sapiens) (UniProt P33032)", "assay": "Displacement of [125I]NDP-alpha-MSH from full length human recombinant MC5 receptor expressed in HEK293 cells at 10 uM measured after 120 mins by radiometric scintillation analysis relative to control", "format": "cell-based"}, "[6]": {"target": "Interleukin-1 receptor-associated kinase 1 (Homo sapiens, UniProt P51617)", "assay": "Inhibition of recombinant human GST-tagged IRAK1 catalytic domain (194 to 712 residues) expressed in baculovirus expression system using Histone H3 (1-20) peptide as substrate incubated for 60 mins in presence of ATP by Adapta assay"}, "[7]": {"target": "Mitogen-activated protein kinase 10 (Homo sapiens, UniProt P53779)", "sequence (P53779 whole entry)": "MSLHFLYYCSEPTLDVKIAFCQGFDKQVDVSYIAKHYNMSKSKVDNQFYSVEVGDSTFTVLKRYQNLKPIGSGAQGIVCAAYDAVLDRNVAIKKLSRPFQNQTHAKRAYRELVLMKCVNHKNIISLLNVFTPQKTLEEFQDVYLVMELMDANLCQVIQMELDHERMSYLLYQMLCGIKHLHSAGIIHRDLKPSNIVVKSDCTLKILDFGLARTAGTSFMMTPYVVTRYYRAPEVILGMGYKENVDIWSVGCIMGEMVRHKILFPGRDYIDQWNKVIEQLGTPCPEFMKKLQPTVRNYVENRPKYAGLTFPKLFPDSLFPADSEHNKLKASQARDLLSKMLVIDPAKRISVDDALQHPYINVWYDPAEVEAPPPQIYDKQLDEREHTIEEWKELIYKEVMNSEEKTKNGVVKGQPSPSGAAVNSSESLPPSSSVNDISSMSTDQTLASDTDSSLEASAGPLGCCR", "assay": "Inhibition of recombinant full length human GST-tagged JNK3 expressed in baculovirus expression system using serine/threonine-4 peptide as substrate incubated for 60 mins in presence of ATP by Z'-LYTE assay"}, "SRSF protein kinase 1": {"target": "SRSF protein kinase 1 (Homo sapiens, UniProt Q96SB4)", "sequence (Q96SB4 whole entry)": "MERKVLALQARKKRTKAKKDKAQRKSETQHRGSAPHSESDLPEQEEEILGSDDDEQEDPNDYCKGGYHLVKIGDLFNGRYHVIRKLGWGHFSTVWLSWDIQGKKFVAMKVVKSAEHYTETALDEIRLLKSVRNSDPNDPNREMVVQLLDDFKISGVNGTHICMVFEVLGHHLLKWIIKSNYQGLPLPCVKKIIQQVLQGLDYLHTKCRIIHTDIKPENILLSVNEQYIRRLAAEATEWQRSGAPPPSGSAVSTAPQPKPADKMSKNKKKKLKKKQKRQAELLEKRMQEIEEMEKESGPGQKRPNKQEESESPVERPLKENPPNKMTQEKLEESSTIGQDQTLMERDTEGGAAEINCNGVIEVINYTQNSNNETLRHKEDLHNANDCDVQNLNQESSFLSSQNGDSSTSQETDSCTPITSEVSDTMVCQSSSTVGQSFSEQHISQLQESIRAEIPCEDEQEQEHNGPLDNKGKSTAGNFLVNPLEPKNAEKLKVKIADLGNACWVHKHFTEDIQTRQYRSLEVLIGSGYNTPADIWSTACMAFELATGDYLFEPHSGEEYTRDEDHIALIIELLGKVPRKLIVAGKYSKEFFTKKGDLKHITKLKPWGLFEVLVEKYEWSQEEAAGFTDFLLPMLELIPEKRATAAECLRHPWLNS", "assay": "Inhibition of recombinant full length human His-tagged SRPK1 expressed in baculovirus expression system using serine/threonine-18 peptide as substrate incubated for 60 mins in presence of ATP by Z'-LYTE assay"}, "[8]": {"target": "RAC-alpha serine/threonine-protein kinase (Homo sapiens, UniProt P31749)", "sequence (P31749 whole entry)": "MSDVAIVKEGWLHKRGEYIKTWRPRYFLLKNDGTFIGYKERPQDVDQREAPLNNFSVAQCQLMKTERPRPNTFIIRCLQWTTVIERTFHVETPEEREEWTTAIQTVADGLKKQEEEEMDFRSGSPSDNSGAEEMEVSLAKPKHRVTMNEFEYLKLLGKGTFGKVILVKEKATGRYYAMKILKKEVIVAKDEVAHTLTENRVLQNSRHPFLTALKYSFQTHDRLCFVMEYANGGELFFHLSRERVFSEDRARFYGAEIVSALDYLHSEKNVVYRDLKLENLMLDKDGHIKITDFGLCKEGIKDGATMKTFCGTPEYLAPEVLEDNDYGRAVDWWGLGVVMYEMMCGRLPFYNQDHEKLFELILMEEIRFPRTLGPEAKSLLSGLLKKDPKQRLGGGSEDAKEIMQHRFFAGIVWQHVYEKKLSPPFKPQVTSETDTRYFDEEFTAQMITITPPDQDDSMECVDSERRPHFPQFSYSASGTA", "assay": "Inhibition of recombinant full length human His-tagged AKT1 expressed in baculovirus expression system using serine/threonine-06 peptide as substrate incubated for 60 mins in presence of ATP by Z'-LYTE assay"}, "[9]": {"target": "Sodium channel protein type 5 subunit alpha (Homo sapiens, UniProt Q14524)", "assay": "Inhibition of Nav1.5 (unknown origin)"}, "[10]": {"target": "Dual specificity mitogen-activated protein kinase kinase 1 (Homo sapiens, UniProt Q02750)", "assay": "Inhibition of recombinant full length human His-tagged MEK1 expressed in baculovirus expression system using serine/threonine-3 peptide as substrate incubated for 60 mins in presence of ATP by Z'-LYTE assay"}, "Homo sapiens": {"organism": "Homo sapiens", "assay": "Inhibition of recombinant human PKA expressed in Escherichia coli at 10 uM using peptide as substrate after 15 mins by radiometric scintillation analysis relative to control"}, "[11]": {"target": "Receptor tyrosine-protein kinase erbB-2 (Homo sapiens, UniProt P04626)", "sequence (P04626 whole entry, the tested form may be a part)": "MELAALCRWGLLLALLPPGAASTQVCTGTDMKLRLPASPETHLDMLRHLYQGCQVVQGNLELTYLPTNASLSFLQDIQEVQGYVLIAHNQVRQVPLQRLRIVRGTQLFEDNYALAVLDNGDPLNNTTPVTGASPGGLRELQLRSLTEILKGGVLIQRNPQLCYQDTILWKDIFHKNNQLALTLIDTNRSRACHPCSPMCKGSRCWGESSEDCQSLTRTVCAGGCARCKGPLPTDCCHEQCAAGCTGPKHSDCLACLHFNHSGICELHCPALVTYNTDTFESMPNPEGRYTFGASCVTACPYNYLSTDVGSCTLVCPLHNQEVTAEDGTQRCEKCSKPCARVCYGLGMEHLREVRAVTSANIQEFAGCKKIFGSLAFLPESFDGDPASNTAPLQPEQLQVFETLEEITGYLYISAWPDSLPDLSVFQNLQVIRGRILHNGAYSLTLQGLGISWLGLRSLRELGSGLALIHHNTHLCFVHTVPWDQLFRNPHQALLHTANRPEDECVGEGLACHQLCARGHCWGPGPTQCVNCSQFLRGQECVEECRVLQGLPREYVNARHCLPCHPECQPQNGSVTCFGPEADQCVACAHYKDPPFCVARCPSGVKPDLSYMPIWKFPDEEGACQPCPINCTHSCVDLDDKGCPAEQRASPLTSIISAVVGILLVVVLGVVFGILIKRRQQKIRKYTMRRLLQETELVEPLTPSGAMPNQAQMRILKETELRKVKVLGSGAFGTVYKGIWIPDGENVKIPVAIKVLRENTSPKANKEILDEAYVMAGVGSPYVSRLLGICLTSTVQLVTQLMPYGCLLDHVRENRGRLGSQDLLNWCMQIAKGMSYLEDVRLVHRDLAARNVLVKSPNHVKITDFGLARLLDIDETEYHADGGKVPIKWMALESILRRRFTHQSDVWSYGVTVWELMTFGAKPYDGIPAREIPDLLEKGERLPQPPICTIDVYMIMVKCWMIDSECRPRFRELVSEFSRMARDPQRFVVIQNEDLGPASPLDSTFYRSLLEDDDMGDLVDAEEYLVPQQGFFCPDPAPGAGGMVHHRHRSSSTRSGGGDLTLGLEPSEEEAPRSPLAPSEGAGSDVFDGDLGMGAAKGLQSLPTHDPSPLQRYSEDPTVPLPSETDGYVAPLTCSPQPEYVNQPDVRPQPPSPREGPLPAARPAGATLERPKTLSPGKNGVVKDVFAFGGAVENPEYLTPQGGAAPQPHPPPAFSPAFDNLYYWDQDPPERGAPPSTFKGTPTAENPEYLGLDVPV", "assay": "Inhibition of human recombinant ERBB2 (537 to 636 residues) expressed in Escherichia coli using Tyr 06 as substrate after 1 hr in presence of ATP by Z'-LYTE assay"}, "[12]": {"target": "Protein kinase C iota type (Homo sapiens, UniProt P41743)", "sequence (P41743 whole entry)": "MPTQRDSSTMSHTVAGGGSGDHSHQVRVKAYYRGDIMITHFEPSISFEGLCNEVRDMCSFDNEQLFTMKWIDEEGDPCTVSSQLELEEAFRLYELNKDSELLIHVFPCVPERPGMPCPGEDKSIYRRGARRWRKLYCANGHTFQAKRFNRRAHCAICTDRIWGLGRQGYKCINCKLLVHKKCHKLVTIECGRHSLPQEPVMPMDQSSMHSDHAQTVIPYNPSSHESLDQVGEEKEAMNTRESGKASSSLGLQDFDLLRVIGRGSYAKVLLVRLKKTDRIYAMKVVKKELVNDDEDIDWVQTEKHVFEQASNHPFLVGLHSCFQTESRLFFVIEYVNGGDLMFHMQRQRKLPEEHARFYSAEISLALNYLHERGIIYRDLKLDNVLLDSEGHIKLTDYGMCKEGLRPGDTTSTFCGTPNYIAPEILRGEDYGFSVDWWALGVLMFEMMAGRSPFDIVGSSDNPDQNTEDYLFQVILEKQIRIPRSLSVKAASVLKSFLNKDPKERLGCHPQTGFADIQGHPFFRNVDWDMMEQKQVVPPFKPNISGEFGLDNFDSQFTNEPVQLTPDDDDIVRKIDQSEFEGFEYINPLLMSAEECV", "assay": "Inhibition of recombinant full length human His-tagged PRKCI expressed in baculovirus expression system using serine/threonine-7 peptide as substrate incubated for 60 mins in presence of ATP by Z'-LYTE assay"}, "[13]": {"target": "Protein kinase C alpha type (Homo sapiens, UniProt P17252)", "assay": "Inhibition of recombinant human GST-tagged PKCalpha expressed in insect expression system using serine/threonine-7 peptide as substrate incubated for 60 mins in presence of ATP by Z'-LYTE assay"}, "[14]": {"target": "Tyrosine-protein kinase ABL1 (Homo sapiens, UniProt P00519, G250E)", "assay": "Inhibition of recombinant full length human His-tagged ABL1 G250E mutant cytoplasmic domain expressed in baculovirus expression system using tyrosine-2 peptide as substrate incubated for 60 mins in presence of ATP by Z'-LYTE assay"}, "Aurora kinase A": {"target": "Aurora kinase A (Homo sapiens, UniProt O14965)", "sequence (O14965 whole entry)": "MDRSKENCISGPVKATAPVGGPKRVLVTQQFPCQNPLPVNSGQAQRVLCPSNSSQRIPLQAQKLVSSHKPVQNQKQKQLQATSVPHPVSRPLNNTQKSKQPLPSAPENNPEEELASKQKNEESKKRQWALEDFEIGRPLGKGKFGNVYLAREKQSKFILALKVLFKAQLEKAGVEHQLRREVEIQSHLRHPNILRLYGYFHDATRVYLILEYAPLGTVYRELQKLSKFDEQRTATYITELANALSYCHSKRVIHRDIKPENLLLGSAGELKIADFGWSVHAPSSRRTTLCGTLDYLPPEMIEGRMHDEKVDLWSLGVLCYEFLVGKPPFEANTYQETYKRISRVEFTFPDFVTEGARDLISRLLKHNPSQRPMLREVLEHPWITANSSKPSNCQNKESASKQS", "assay": "Inhibition of recombinant human full length AURKA expressed in baculovirus expression system using Ser/Thr-01 peptide as substrate after 1 hr in presence of ATP by Z'LYTE assay"}, "[15]": {"target": "PI3-kinase p110-delta/p85-alpha (Homo sapiens, UniProt O00329)", "assay": "Inhibition of recombinant human full-length N-terminal GST-tagged p110delta/untagged full-length p85alpha expressed in baculovirus infected Sf21 cells using PIP2 as substrate preincubated for 15 mins followed by substrate addition and measured after 1 hr by HTRF assay"}, "[16]": {"target": "Serine/threonine-protein kinase Nek7 (Homo sapiens, UniProt Q8TDX7)", "sequence (Q8TDX7 whole entry)": "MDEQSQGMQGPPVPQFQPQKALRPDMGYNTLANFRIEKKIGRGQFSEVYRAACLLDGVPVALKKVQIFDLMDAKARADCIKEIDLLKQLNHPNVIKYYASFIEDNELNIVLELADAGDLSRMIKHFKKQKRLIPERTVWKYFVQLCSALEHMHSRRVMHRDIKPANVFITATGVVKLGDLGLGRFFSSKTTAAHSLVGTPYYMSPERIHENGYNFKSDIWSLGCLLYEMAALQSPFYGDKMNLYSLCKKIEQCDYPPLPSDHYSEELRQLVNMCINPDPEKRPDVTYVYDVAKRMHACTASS", "assay": "Inhibition of NEK7 (unknown origin) by Z'LYTE assay"}, "CDK2/Cyclin A2": {"target": "CDK2/Cyclin A2 (Homo sapiens, UniProt P24941)", "assay": "Inhibition of recombinant full length human His-tagged CDK2/Cyclin A expressed in baculovirus expression system using serine/threonine-12 peptide as substrate incubated for 60 mins in presence of ATP by Z'-LYTE assay"}, "[17]": {"target": "Alpha-1A adrenergic receptor (Rattus norvegicus) (UniProt P43140)", "assay": "Displacement of [3H]prazosin from alpha1a adrenergic receptor in Wistar rat submaxillary gland membranes at 10 uM measured after 60 mins by scintillation counting method relative to control", "format": "cell membranes", "details": "Membrane"}, "[18]": {"target": "Mu-type opioid receptor (Homo sapiens) (UniProt P35372)", "sequence (P35372 whole entry)": "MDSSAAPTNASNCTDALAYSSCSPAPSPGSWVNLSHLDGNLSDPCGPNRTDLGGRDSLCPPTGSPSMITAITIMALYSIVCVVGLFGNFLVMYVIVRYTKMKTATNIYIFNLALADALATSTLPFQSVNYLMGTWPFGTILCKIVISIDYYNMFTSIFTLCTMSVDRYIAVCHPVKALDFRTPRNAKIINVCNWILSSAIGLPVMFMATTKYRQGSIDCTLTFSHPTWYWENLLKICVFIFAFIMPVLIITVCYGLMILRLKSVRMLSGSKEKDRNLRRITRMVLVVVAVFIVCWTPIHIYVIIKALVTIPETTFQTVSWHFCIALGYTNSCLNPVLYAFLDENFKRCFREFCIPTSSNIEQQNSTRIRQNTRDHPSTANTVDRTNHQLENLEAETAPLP", "assay": "Displacement of [3H]diprenorphine from full length human recombinant Mu opioid receptor expressed in CHO-K1 cells at 10 uM measured after 60 mins by radiometric scintillation analysis relative to control", "format": "cell-based"}, "[19]": {"assay": "Clearance in human liver microsomes", "format": "ADME, Microsome", "details": "read-out: CLH"}, "[20]": {"target": "Serine/threonine-protein kinase MRCK beta (Homo sapiens, UniProt Q9Y5S2)", "assay": "Inhibition of recombinant human His-tagged MRCKB catalytic domain expressed in baculovirus expression system using serine/threonine-13 peptide as substrate incubated for 60 mins in presence of ATP by Z'-LYTE assay"}, "Sphingosine kinase 2": {"target": "Sphingosine kinase 2 (Homo sapiens, UniProt Q9NRA0)", "assay": "Inhibition of recombinant full length GST-tagged human SPHK2 expressed in baculovirus expression system using Sphingosine lipid as substrate in presence of ATP after 1 hr by Adapta assay"}, "[21]": {"target": "Dual specificity tyrosine-phosphorylation-regulated kinase 4 (Homo sapiens, UniProt Q9NR20)", "assay": "Inhibition of recombinant full length human GST-tagged DYRK4 expressed in baculovirus expression system using serine/threonine-9 peptide as substrate incubated for 60 mins in presence of ATP by Z'-LYTE assay"}, "[22]": {"target": "Endothelin receptor type B (Homo sapiens) (UniProt P24530)", "sequence (P24530 whole entry)": "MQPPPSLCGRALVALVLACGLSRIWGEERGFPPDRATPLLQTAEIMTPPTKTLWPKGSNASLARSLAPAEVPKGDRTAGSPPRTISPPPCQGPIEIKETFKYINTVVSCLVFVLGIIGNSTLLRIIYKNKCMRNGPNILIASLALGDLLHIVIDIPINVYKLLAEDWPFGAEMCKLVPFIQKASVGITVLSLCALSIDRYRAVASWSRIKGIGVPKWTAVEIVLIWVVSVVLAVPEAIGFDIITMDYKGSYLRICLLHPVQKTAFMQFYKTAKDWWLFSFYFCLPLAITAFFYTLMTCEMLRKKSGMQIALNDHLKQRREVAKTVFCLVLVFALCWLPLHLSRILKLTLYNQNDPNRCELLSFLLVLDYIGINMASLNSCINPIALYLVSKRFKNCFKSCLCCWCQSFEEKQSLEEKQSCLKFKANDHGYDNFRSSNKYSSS", "assay": "Displacement of [125I]endothelin-1 from recombinant full length human recombinant ETB receptor expressed in CHO-K1 cells at 10 uM measured after 120 mins by radiometric scintillation analysis relative to control", "format": "cell-based"}},
  "data": [
    {"smiles": "C[C@@H]1C[C@H]1C(=O)N1CCN(c2cnc(C#N)c(-c3cnn(C)c3)n2)C[C@H]1C", "values": [
      {"measurement": "IC50", "setting": "[1]", "value": 40.5, "unit": "µM"},
      {"measurement": "clearance", "setting": "[2]", "value": 28.5, "unit": "mL/min/kg"},
      {"measurement": "IC50", "setting": "[3]", "value": "> 100", "unit": "µM"},
      {"measurement": "IC50", "setting": "[4]", "value": "> 100", "unit": "µM"},
      {"measurement": "inhibition", "setting": "[5]", "value": 22, "unit": "%"},
      {"measurement": "IC50", "setting": "[6]", "value": "> 100", "unit": "µM"},
      {"measurement": "IC50", "setting": "[7]", "value": "> 100", "unit": "µM"},
      {"measurement": "IC50", "setting": "SRSF protein kinase 1", "value": "> 100", "unit": "µM"},
      {"measurement": "IC50", "setting": "[8]", "value": "> 100", "unit": "µM"},
      {"measurement": "IC50", "setting": "[9]", "value": "> 30", "unit": "µM"},
      {"measurement": "IC50", "setting": "[10]", "value": "> 100", "unit": "µM"},
      {"measurement": "inhibition", "setting": "Homo sapiens", "value": -3, "unit": "%"},
      {"measurement": "IC50", "setting": "[11]", "value": "> 100", "unit": "µM"},
      {"measurement": "IC50", "setting": "[12]", "value": "> 100", "unit": "µM"},
      {"measurement": "IC50", "setting": "[13]", "value": "> 100", "unit": "µM"},
      {"measurement": "IC50", "setting": "[14]", "value": "> 100", "unit": "µM"},
      {"measurement": "IC50", "setting": "Aurora kinase A", "value": 16, "unit": "µM"},
      {"measurement": "IC50", "setting": "[15]", "value": 0.009, "unit": "µM"},
      {"measurement": "IC50", "setting": "[16]", "value": "> 100", "unit": "µM"},
      {"measurement": "IC50", "setting": "CDK2/Cyclin A2", "value": "> 100", "unit": "µM"},
      {"measurement": "inhibition", "setting": "[17]", "value": -7, "unit": "%"},
      {"measurement": "inhibition", "setting": "[18]", "value": 5, "unit": "%"},
      {"measurement": "CLint scaled", "setting": "[19]", "value": "< 16", "unit": "mL/min/kg"},
      {"measurement": "IC50", "setting": "[20]", "value": "> 100", "unit": "µM"},
      {"measurement": "IC50", "setting": "Sphingosine kinase 2", "value": "> 100", "unit": "µM"},
      {"measurement": "IC50", "setting": "[21]", "value": "> 100", "unit": "µM"},
      {"measurement": "inhibition", "setting": "[22]", "value": 2, "unit": "%"}
    ]}
  ]
}
